Values joined by “and” are separate entries in the source; they are usually repeats but may differ in a detail not shown here. Equal entries are not always repeated. Where two headings read alike, the source gives them in different places.
Columns and labels:
eIF1A = target: T1, eIF1A (Homo sapiens, UniProt P47813); assay type: binding; details: for fluorescence ratio, eIF1A: background-corrected, relative to DMSO or lowest 1Ai concentration, replicate columns
T1 construct: His-bdSUMO (cleaved yes); made in house; host or cells: E. coli BL-21
T1 sequence (P47813 whole entry): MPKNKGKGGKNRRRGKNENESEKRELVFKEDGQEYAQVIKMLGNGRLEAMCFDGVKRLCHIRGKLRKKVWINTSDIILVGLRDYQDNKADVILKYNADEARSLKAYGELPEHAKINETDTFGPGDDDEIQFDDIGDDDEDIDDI

[1] = system: uORF-bearing 5'UTR firefly reporters in HEK293T cells; experiment: uORF reinitiation / leaky scanning firefly reporters; details: for ff/rl, 46 leaky reporter / ff/rl, 46 reporter / ff/rl, normal reporter: single replicates, not normalized to DMSO
Excerpt: (M) The reference and uORF-bearing reporters were transfected to HEK293T cells together with RL, which served to normalize translation efficiency. The reporter activities are represented as firefly vs RL; n ≥3 independent biological replicates, error bars represent SEM. *P < 0.05, **P < 0.01, Student t test. (N) Firefly Reporters (J) were transfected to HEK293T cells together with normalizing RL. […] Results are represented as firefly vs. RL normalized to DMSO in each biological replicate; n = 4, error bars represent SEM. *P < 0.05, **P < 0.01, Student t test.
In the first and second, we inserted an out-of-frame uAUG 46 or 95 nucleotides before the main ORF, respectively, followed by a downstream stop codon generating an uORF of 10 amino acids. In these constructs, the translation from the main ORF could be either by reinitiation or leaky scanning. In the third construct, this out of frame uAUG lacks a stop codon, causing initiation from the main ORF to exclusively occur via leaky scanning (Fig. 4L). These reporters were transfected into HEK293T cells together with RL luciferase reporter for normalizing transfection efficiency. […] We next examined these reporters in the presence of 1Ais.

NSP1 = NSP1 (Severe acute respiratory syndrome coronavirus 2, UniProt P0DTD1)
eIF1A without NTT = target: T2, eIF1A without NTT (Homo sapiens, UniProt P47813); experiment: Fluorescence binding assay with NTT-truncated eIF1A; details: for fluorescence ratio, eIF1A Δ NTT: background-corrected, relative to DMSO or lowest 1Ai concentration, replicate columns
T2 construct: His-bdSUMO (cleaved yes); made in house; host or cells: E. coli (BL-21)
T2 sequence (P47813 31-144 limits assumed): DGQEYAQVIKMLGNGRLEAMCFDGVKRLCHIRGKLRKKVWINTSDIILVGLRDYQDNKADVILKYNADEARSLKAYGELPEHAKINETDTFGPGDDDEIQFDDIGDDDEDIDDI

eIF1A-RPS10 interaction = target: T3, eIF1A-RPS10 interaction (Homo sapiens, UniProt P46783+P47813); experiment: Split-Renilla luciferase eIF1A-RPS10 interaction screen, dose-response; assay type: biochemical; details: summary table; read-out: IC50 concentration (µM), IC50 screen
T3 construct: made in house; host or cells: E. coli BL21 (PRSFduet); unpurified lysate supernatant
T3 sequence (P47813 whole entry, one chain of several): as the sequence (P47813 whole entry) above
Method in brief: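 The assay used bacterial lysates containing human eIF1A and RPS10, each carrying a partial Renilla luciferase, with eIF1A tagged at its C-terminus. Inhibition was scored as reduced luciferase signal from compounds prepared as 10 mM DMSO stocks.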

eIF1A without CTT = target: T4, eIF1A without CTT (Homo sapiens, UniProt P47813); assay type: binding; details: for fluorescence ratio, eIF1A Δ CTT: background-corrected, relative to DMSO or lowest 1Ai concentration, replicate columns
T4 construct: His-bdSUMO (cleaved yes); made in house; host or cells: E. coli (BL-21)
T4 sequence (P47813 1-114 limits assumed): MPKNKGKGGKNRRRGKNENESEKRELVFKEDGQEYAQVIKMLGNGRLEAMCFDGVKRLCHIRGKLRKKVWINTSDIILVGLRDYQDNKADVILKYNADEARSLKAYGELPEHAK

O=C(COc1ccccc1[N+](=O)[O-])NCc1ccc(-c2ccc(Br)cc2)o1 [1Ai-4700]
fluorescence ratio, eIF1A (eIF1A; 1Ai conc. 0.25 uM): 1.051 and 0.9016
fluorescence ratio, eIF1A (eIF1A; 1Ai conc. 0.5 uM): 1.104 and 0.9037
fluorescence ratio, eIF1A (eIF1A; 1Ai conc. 1 uM): 1.126 and 0.8562
fluorescence ratio, eIF1A (eIF1A; 1Ai conc. 2 uM): 1.098 and 0.832
fluorescence ratio, eIF1A (eIF1A; 1Ai conc. 4 uM): 1.037 and 0.7686
fluorescence ratio, eIF1A (eIF1A; 1Ai conc. 8 uM): 0.8525 and 0.6514
fluorescence ratio, eIF1A (eIF1A; 1Ai conc. 16 uM): 0.7753 and 0.6291
fluorescence ratio, eIF1A (eIF1A; 1Ai conc. 32 uM): 0.583 and 0.5184
fluorescence ratio, eIF1A (eIF1A; 1Ai conc. 64 uM): 0.4409 and 0.3702
fluorescence ratio, eIF1A (eIF1A; 1Ai conc. 256 uM): 0.3305 and 0.2635
IC50 (eIF1A; eIF1A, from the titration data, read-out: IC50 (eIF1A titration block)): 20.9 µM
IC50 (eIF1A; summary table, fluorescence binding assay, read-out: IC50 concentration (µM), WT eIF1A): 20.9 µM
effect on uORF / leaky scanning reporters ([1]; 20uM (1Ai-5175 at 5uM), overnight): inhibit the short-distance reinitiation
normalized to DMSO, 46 leaky, average ([1]; 46 leaky reporter, average of biological repeats): 0.994
normalized to DMSO, 46 leaky, biological repeats ([1]; 46 leaky reporter, biological repeats 1-4): 0.989 and 1.082 and 1.159 and 0.746
normalized to DMSO, 46 leaky ([1]; 46 leaky reporter, single replicates 1-8 (two dates)): 0.973 and 1.005 and 1.055 and 1.109 and 1.618 and 0.700 and 0.255 and 1.237
normalized to DMSO, -46, average ([1]; -46 reporter, average of biological repeats): 0.679
normalized to DMSO, -46, biological repeats ([1]; -46 reporter, biological repeats 1-4): 0.691 and 0.744 and 0.743 and 0.536
normalized to DMSO, -46 ([1]; -46 reporter, single replicates 1-8 (two dates)): 0.671 and 0.712 and 0.669 and 0.819 and 1.007 and 0.479 and 0.251 and 0.821
ff/rl, 46 leaky reporter ([1]; experiment 12.3.24): 3.84E-02 and 3.96E-02 and 4.16E-02 and 4.37E-02
ff/rl, 46 reporter ([1]; experiment 12.3.24): 1.06E-01 (2×) and 1.12E-01 and 1.29E-01
ff/rl, normal reporter ([1]; experiment 12.3.24): 2.90E-01 and 2.11E-01 and 2.89E-01 and 2.67E-01
ff/rl, 46 leaky reporter ([1]; experiment 13.03.24): 1.47E-02 and 6.33E-03 and 2.31E-03 and 1.12E-02
ff/rl, 46 reporter ([1]; experiment 13.03.24): 2.46E-02 and 1.17E-02 and 6.14E-03 and 2.01E-02
ff/rl, normal reporter ([1]; experiment 13.03.24): 3.97E-02 and 5.12E-02 and 7.78E-02 and 1.08E-01
reporter activity norm to DMSO, minus46 ([1]; minus46 reporter, 95nt from uORF to main ORF experiment, Figure 4N source data, replicate experiments, DMSO = 1): 0.3368 and 0.3707
reporter activity norm to DMSO, minus 95 ([1]; minus 95 (nt) reporter, 95nt from uORF to main ORF experiment, Figure 4N source data, replicate experiments, DMSO = 1): 1.361 and 1.106
reporter activity norm to DMSO, ref ([1]; ref reporter, 95nt from uORF to main ORF experiment, Figure 4N source data, replicate experiments, DMSO = 1): 0.8256 and 0.6094
normalized to DMSO, refference, average ([1]; refference reporter, average of biological repeats): 0.908
normalized to DMSO, refference ([1]; refference reporter, single replicates 1-8 (two dates)): 1.031 and 0.751 and 1.028 and 0.950 and 0.503 and 0.648 and 0.985 and 1.371
normalized to DMSO, single replicates ([1]; reporter 46, experiment 12.3.24): 6.71E-01 and 7.12E-01 and 6.69E-01 and 8.19E-01
normalize to DMSO, average ([1]; reporter 46, experiment 12.3.24, DMSO = 1): 0.7177
normalized to DMSO, single replicates ([1]; reporter 46, experiment 13.3.24): 1.01E+00 and 4.79E-01 and 2.51E-01 and 8.21E-01
normalize to DMSO, average ([1]; reporter 46, experiment 13.3.24, DMSO = 1): 0.6395
normalize to DMSO, average ([1]; reporter 46 leaky, experiment 12.3.24, DMSO = 1): 1.036
normalized to DMSO, single replicates ([1]; reporter 46 leaky, experiment 13.3.24): 1.62E+00 and 7.00E-01 and 2.55E-01 and 1.24E+00
normalize to DMSO, average ([1]; reporter 46 leaky, experiment 13.3.24, DMSO = 1): 0.9525
normalized to DMSO, single replicates ([1]; reporter normal (refference), experiment 12.3.24): 1.03E+00 (2×) and 7.51E-01 and 9.50E-01
normalized to DMSO, single replicates ([1]; reporter normal (refference), experiment 13.3.24): 5.03E-01 and 6.48E-01 and 9.85E-01 and 1.37E+00
normalize to DMSO, average ([1]; reporter refference, experiment 12.3.24, DMSO = 1): 0.9399
normalize to DMSO, average ([1]; reporter refference, experiment 13.3.24, DMSO = 1): 0.8765
inhibitory effect with extended (long) reinitiation distance ([1]; uORF to main ORF distance extended by 49 nt): lost
GFP reporter ratio nsp1/gfp, avg (NSP1): 0.4331
GFP reporter ratio nsp1/gfp, rep 1 (NSP1): 0.4284
GFP reporter ratio nsp1/gfp, rep 2 (NSP1): 0.4378
gfp signal, mean of duplicate wells (NSP1): 2716 and 2411 and 2645
nsp1 signal, mean of duplicate wells (NSP1): 1163.5 and 1055.5 and 1429.5
ratio (nsp1/gfp) (NSP1): 0.428 and 0.438 and 0.540
binding to NTT-truncated eIF1A (eIF1A without NTT): significantly decreased
fluorescence ratio, eIF1A Δ NTT (eIF1A without NTT; 1Ai conc. 0.25 uM): 0.8472 and 0.7714
fluorescence ratio, eIF1A Δ NTT (eIF1A without NTT; 1Ai conc. 0.5 uM): 0.8794 and 0.8467
fluorescence ratio, eIF1A Δ NTT (eIF1A without NTT; 1Ai conc. 1 uM): 0.866 and 0.8543
fluorescence ratio, eIF1A Δ NTT (eIF1A without NTT; 1Ai conc. 2 uM): 0.8713 and 0.8518
fluorescence ratio, eIF1A Δ NTT (eIF1A without NTT; 1Ai conc. 4 uM): 0.8204 and 0.8417
fluorescence ratio, eIF1A Δ NTT (eIF1A without NTT; 1Ai conc. 8 uM): 2.437 and 0.8015
fluorescence ratio, eIF1A Δ NTT (eIF1A without NTT; 1Ai conc. 16 uM): 0.7775 and 0.7663
fluorescence ratio, eIF1A Δ NTT (eIF1A without NTT; 1Ai conc. 32 uM): 0.7078 and 0.6935
fluorescence ratio, eIF1A Δ NTT (eIF1A without NTT; 1Ai conc. 64 uM): 0.6729 and 0.5628
fluorescence ratio, eIF1A Δ NTT (eIF1A without NTT; 1Ai conc. 256 uM): 0.6059 and 0.6683
IC50 (eIF1A without NTT; eIF1A Δ NTT, from the titration data, read-out: IC50 (eIF1A Δ NTT titration block)): 30.2 µM
IC50 (eIF1A without NTT; summary table, fluorescence binding assay, read-out: IC50 concentration (µM), NTT truncation): 45.7 µM
IC50 (eIF1A-RPS10 interaction): 11 µM
fluorescence ratio, eIF1A Δ CTT (eIF1A without CTT; 1Ai conc. 0.25 uM): 1.002 and 1.029
fluorescence ratio, eIF1A Δ CTT (eIF1A without CTT; 1Ai conc. 0.5 uM): 0.8837 and 0.9156
fluorescence ratio, eIF1A Δ CTT (eIF1A without CTT; 1Ai conc. 1 uM): 0.8554 and 0.8332
fluorescence ratio, eIF1A Δ CTT (eIF1A without CTT; 1Ai conc. 2 uM): 0.9021 and 0.8902
fluorescence ratio, eIF1A Δ CTT (eIF1A without CTT; 1Ai conc. 4 uM): 0.8119 and 0.7934
fluorescence ratio, eIF1A Δ CTT (eIF1A without CTT; 1Ai conc. 8 uM): 0.6359 and 0.584
fluorescence ratio, eIF1A Δ CTT (eIF1A without CTT; 1Ai conc. 16 uM): 0.7372 and 0.671
fluorescence ratio, eIF1A Δ CTT (eIF1A without CTT; 1Ai conc. 32 uM): 0.5663 and 0.5472
fluorescence ratio, eIF1A Δ CTT (eIF1A without CTT; 1Ai conc. 64 uM): 0.381 and 0.3897
fluorescence ratio, eIF1A Δ CTT (eIF1A without CTT; 1Ai conc. 256 uM): 0.2785 and 0.26
IC50 (eIF1A without CTT; eIF1A Δ CTT, from the titration data, read-out: IC50 (eIF1A Δ CTT titration block)): 30.2 µM
IC50 (eIF1A without CTT; summary table, fluorescence binding assay, read-out: IC50 concentration (µM), CTT truncation): 30.2 µM

Reference: paper PMC12216609, “Inhibitors of eIF1A-ribosome interaction unveil uORF-dependent regulation of translation initiation and antitumor and antiviral effects” (The EMBO Journal, 2025)
